Values of other authors as cited in patent US20250129135A1, “Multi-Agonist and Use Thereof” (priority 2021, published 2025).

Key:
Human GLP-1R = Human GLP-1R (Homo sapiens, UniProt P43220); conditions: background statement; cited from earlier work
GCG receptor = GCG receptor (Homo sapiens, UniProt P47871); conditions: background statement; cited from earlier work
[1] = 26 weeks, cited from earlier work

Chain of Human GLP-1R (P43220 24-463, species assumed): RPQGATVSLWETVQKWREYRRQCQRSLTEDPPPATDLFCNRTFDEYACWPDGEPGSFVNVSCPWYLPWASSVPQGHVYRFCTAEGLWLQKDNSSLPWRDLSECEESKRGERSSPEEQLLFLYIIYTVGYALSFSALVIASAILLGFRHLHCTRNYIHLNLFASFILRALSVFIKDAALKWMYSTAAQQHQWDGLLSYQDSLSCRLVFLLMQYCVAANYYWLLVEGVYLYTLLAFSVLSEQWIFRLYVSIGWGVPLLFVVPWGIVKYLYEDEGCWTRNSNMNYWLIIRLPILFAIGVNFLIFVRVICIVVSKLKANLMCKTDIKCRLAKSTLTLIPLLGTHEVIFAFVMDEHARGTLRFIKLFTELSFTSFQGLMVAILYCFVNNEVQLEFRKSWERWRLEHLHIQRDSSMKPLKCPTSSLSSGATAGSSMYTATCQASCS
Chain of GCG receptor (P47871 26-477): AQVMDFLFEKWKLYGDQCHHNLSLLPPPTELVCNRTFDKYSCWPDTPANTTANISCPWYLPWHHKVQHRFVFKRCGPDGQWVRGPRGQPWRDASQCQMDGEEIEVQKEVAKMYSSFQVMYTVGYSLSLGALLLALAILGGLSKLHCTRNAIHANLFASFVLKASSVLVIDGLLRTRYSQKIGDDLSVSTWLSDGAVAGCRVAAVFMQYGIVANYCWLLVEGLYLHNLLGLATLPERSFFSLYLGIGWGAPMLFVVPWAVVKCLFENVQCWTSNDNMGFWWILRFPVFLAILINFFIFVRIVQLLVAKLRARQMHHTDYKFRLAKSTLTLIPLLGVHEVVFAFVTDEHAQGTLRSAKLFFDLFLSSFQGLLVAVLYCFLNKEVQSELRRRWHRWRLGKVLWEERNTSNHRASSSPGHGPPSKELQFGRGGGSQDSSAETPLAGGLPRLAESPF

CCCCCCCCCCCCCCCC(=O)N[C@@H](CCC(=O)NCCCC[C@H](NC(=O)[C@H](CC(=O)O)NC(=O)[C@H](CO)NC(=O)[C@@H](NC(=O)[C@H](Cc1ccccc1)NC(=O)[C@@H](NC(=O)CNC(=O)[C@H](CCC(N)=O)NC(=O)[C@H](CO)NC(=O)[C@@H](N)Cc1c[nH]cn1)[C@@H](C)O)[C@@H](C)O)C(=O)N[C@@H](CO)C(=O)N[C@@H](CCC(=O)O)C(=O)N[C@@H](Cc1ccc(O)cc1)C(=O)N[C@@H](CC(C)C)C(=O)N[C@@H](CC(=O)O)C(=O)N[C@@H](CO)C(=O)N[C@@H](CCC(=O)O)C(=O)N[C@@H](CCCNC(=N)N)C(=O)N[C@@H](C)C(=O)N[C@@H](CCCNC(=N)N)C(=O)N[C@@H](CC(=O)O)C(=O)N[C@@H](Cc1ccccc1)C(=O)N[C@H](C(=O)N[C@@H](C)C(=O)N[C@@H](Cc1c[nH]c2ccccc12)C(=O)N[C@@H](CC(C)C)C(=O)N[C@@H](CCC(=O)O)C(=O)N[C@@H](C)C(=O)NCC(=O)NCC(=O)O)C(C)C)C(=O)O [Cotadutide]
GLP-1 receptor activity EC50 relative to wild-type GLP-1 (Human GLP-1R): 29%
GCG receptor relative activity EC50 (GCG receptor): 12.8%
body weight, blood lipids, and levels of ALT and AST ([1]; 100-300 μg compared to liraglutide): dose-dependent reduction
reduction of HbA1c ([1]; each dose group compared to liraglutide): no significant advantage
